Experimental data: patent US11266578B2, “Composition, kit and method for coloring keratinous fibers” (Henkel AG & Co. KGaA, priority 2017, dated 2022)

Assay: Water-solubility at 1 wt. % in distilled water
Format: physicochemical
Conditions: 1 wt. % in ~pH7 distilled water at RT; clear = soluble, turbid = insoluble
Method: Water-solubility of a chemical compound, and, for instance, water insolubility of condensation-curable amino-silicone pre-polymers, can be provided by the supplier. It can also be confirmed or determined as follows. Water-solubility was assessed by mixing 1 wt. % of the material in near neutral (˜pH7) distilled water at RT, followed by a brief vortex for homogeneity. A clear solution indicated a water-soluble material, whereas turbidity indicated an at least partly water-insoluble material.

Structure (SMILES) | water-solubility
CCO[Si](C)(C)CCCN [3-aminopropyldimethylethoxysilane] | water soluble
CCO[Si](CCCN)(OCC)OCC [Dynasylan® AMEO, 3-aminopropyltriethoxysilane] | soluble
C[Si](C)(CCCN)O[Si](C)(C)CCCN [GP-967, Bis 3-aminopropyl tetramethyldisiloxane] | turbid dispersion
CCO[Si](CCCNCCN)(OCC)OCC [N-(2-aminoethyl)-3-aminopropyltriethoxysilane] | water soluble
CCO[Si](CCCNCCC[Si](OCC)(OCC)OCC)(OCC)OCC [SIB1824.5, bis(triethoxy-silylpropyl) amine] | insoluble
CCO[Si](CCCN1CCC[Si]1(OCC)OCC)(OCC)OCC [SIT8187.2, 1-(3-(triethoxysilyl)propyl)-2,2-diethoxi-1-aza-2-silacyclopentane] | insoluble

Same assay, conditions: Table 17

Structure (SMILES) | solubility (in Material Type)
CCO[Si](C)(CCCN)OCC [3-Aminopropylmethyl-diethoxysilane] | silane (soluble)
CCO[Si](C)(CCCNCCC[Si](C)(OCC)OCC)OCC [Bis[methyldiethoxysilyl-propyl] amine] | silane (non soluble)
C[Si]1(C)O[Si](C)(C)O[Si](C)(C)O[Si](C)(C)O[Si](C)(C)O1 [Decamethylcyclopenta-siloxane, Decamethylcyclopentasiloxane] | (soluble)
CCO[Si](CCCNCCN)(OCC)OCC [N-(2-aminoethyl)-3-aminopropyltriethoxysilane] | silane (soluble)
